# Measured values taken from patent US20100144860A1, “Transglutaminase Inhibitor Comprising EGCG And A Method For Producing Thereof” (priority 2007, published 2010).
# Biological target: T1, Transglutaminase 2 (Cavia cutleri, UniProt P08587)
# T1 construct: purchased Sigma-Aldrich T5398
# T1 sequence (P08587 1-690): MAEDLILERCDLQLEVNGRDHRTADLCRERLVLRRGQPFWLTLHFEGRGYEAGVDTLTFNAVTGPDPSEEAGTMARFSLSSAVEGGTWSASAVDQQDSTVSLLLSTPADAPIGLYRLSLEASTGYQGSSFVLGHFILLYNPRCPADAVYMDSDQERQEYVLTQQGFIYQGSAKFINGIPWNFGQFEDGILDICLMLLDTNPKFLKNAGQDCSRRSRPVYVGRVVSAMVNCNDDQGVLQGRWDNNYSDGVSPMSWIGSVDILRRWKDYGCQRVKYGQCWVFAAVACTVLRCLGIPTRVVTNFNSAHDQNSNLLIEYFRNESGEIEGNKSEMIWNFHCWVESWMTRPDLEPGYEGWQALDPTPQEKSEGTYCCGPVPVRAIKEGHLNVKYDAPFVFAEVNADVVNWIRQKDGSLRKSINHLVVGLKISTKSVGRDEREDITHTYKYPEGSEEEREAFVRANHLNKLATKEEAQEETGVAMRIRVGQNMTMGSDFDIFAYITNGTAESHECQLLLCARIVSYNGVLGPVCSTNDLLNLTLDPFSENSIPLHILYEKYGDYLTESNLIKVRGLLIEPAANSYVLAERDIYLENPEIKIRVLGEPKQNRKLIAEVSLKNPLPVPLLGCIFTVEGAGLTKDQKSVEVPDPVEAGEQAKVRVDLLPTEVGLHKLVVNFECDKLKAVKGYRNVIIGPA
# Experiment: In vitro assay for inhibition of transglutaminase activity ([1,4-14C] putrescine incorporation into succinylated casein)
# Format: biochemical
# Details: for activity of transglutaminase, Mean: mean of three assays, relative to DMSO control; for activity of transglutaminase, Assay 1 / activity of transglutaminase, Assay 2 / activity of transglutaminase, Assay 3: radioactivity compensated by DMSO-control group (=1.0000)
# Procedure: To measure the inhibitory activity of EGCG which competes with putrescine, the transglutaminase-catalyzed reaction between [1,4,-^14C] putrescine and succinylated casein were observed.
# Succinylated casein was purchased from Calbiochem (Cat. No. 573464), and 1 g of the powder was dissolved in 50 ml of a reaction buffer solution containing 5 mM DTT (0.1 M Tris-acetate (pH 8.0), 10 mM CaCl2, 0.15 M NaCl, 1.0 mM EDTA). This solution was stored in a deep freezer for further use. [1,4-^14C] Putrescine dihydrochloride was purchased from GE Healthcare (Cat. No. CFA301), and the stock solution was diluted with distilled water to yield a radiological dose of 5 μCi/ml. Transglutaminase 2 was purchased from Sigma-Aldrich (Cat. No. T5398), and diluted with distilled water to yield a final concentration of 1 unit/ml. EGCG (Sigma-Aldrich, Cat. No. E4143) was dissolved in DMSO at a concentration of 10 mM to prepare its stock solution, and the stock solution was diluted with DMSO to prepare solutions having various concentrations.
# 450 μl of succinylated casein solution and 50 μl of [1,4-^14C] putrescine dihydrochloride solution were mixed together to prepare a substrate solution. 96 μl of the reaction buffer, 3 μl of the stock solution of EGCG, and 1 μl of the stock solution of transglutaminase were mixed together to prepare each sample, followed by incubation at 37° C. for 10 min. 500 μl of the substrate solution and 100 μl of sample solution were mixed well, and the mixture was incubated at 37° C. for 2 hrs, before termination with 4.5 ml of cold (4° C.) 7.5% TCA. The final solution was stored at 4° C. for 1 hr. The TCA-precipitates were filtered through a GF/glass fiber filter, washed with 25 ml of cold 5% TCA, and dried. Radioactivity of crosslinked protein was measured using a (β-counter (Beckman Coulter), and compensated by the activity of DMSO-control group as a standard. The activity of transglutaminase was represented by the measured values. The assay was repeated three times under the same conditions, and the results are shown in the following Table 1.
smiles,measurement,setting,value
"O=C(O[C@@H]1Cc2c(O)cc(O)cc2O[C@@H]1c1cc(O)c(O)c(O)c1)c1cc(O)c(O)c(O)c1 [EGCG, [2R, 3R]-2[3,4,5-trihydroxyphenyl]-3,4-dihydro-1[2H]-benzopyran-3,5,7-triol-3-[3,4,5-trihydroxybenzonate]]","activity of transglutaminase, Mean",EGCG 0.5 μM,0.5383
same,"activity of transglutaminase, Assay 1",EGCG 0.5 μM,0.5166
same,"activity of transglutaminase, Assay 2",EGCG 0.5 μM,0.5690
same,"activity of transglutaminase, Assay 3",EGCG 0.5 μM,0.5295
same,"activity of transglutaminase, Mean",EGCG 1.0 μM,0.3677
same,"activity of transglutaminase, Assay 1",EGCG 1.0 μM,0.3950
same,"activity of transglutaminase, Assay 2",EGCG 1.0 μM,0.3873
same,"activity of transglutaminase, Assay 3",EGCG 1.0 μM,0.3207
same,"activity of transglutaminase, Mean",EGCG 2.0 μM,0.2001
same,"activity of transglutaminase, Assay 1",EGCG 2.0 μM,0.2009
same,"activity of transglutaminase, Assay 2",EGCG 2.0 μM,0.2288
same,"activity of transglutaminase, Assay 3",EGCG 2.0 μM,0.1707
same,"activity of transglutaminase, Mean",EGCG 3.0 μM,0.1765
same,"activity of transglutaminase, Assay 1",EGCG 3.0 μM,0.1911
same,"activity of transglutaminase, Assay 2",EGCG 3.0 μM,0.1902
same,"activity of transglutaminase, Assay 3",EGCG 3.0 μM,0.1482
same,"activity of transglutaminase, Mean",EGCG 5.0 μM,0.1064
same,"activity of transglutaminase, Assay 1",EGCG 5.0 μM,0.1246
same,"activity of transglutaminase, Assay 2",EGCG 5.0 μM,0.0947
same,"activity of transglutaminase, Assay 3",EGCG 5.0 μM,0.1000
same,"activity of transglutaminase, Mean",EGCG 10.0 μM,0.0879
same,"activity of transglutaminase, Assay 1",EGCG 10.0 μM,0.1029
same,"activity of transglutaminase, Assay 2",EGCG 10.0 μM,0.0726
same,"activity of transglutaminase, Assay 3",EGCG 10.0 μM,0.0881
same,"activity of transglutaminase, Mean",EGCG 50.0 μM,0.0871
same,"activity of transglutaminase, Assay 1",EGCG 50.0 μM,0.0861
same,"activity of transglutaminase, Assay 2",EGCG 50.0 μM,0.0903
same,"activity of transglutaminase, Assay 3",EGCG 50.0 μM,0.0849
same,inhibition of the activity of transglutaminase (in words),"FIG. 1, relative inhibition activities",inhibited in an EGCG concentration-dependent manner
same,IC50,calculated by nonlinear regression from mean values,517 nM
